What was measured:
[1] = tested on: growth cone of an NGF-dependent neuron (TrkA neuron); assay: In vitro growth cone turning assay, NGF-supplemented medium; assay type: cell-based, chicken; conditions: for change in axon extension direction in response to concentration gradient: NGF-supplemented medium, TrkA neuron, lysophospholipid 10 μM in pipette, 45 minutes
Source text: (§1) The method described in T. Tojima et al., Nat Neurosci 10, 58-66 (January, 2007) was somewhat modified and employed to perform a primary culture of isolated DRG sensory nerves. Specifically, a chicken embryo at HH St. 29 was separated from the eggshell and decapitated. The body was transferred to ice-cooled PBS. Organs were removed from the obtained body with forceps, and the spine was exposed by ventral laminectomy. DRGs were isolated from the thoracic or lumbosacral spinal cord, broken into pieces fine watchmaker's forceps, and transferred into an L15 medium on ice. The DRG obtained by the dissection was treated with trypsin at 37° C. for 20 minutes, followed by centrifugation at 100 g for 1 minute. A minimum amount of an L15 medium was added to the pellets thus obtained, and the cells were manually suspended (repeated manual trituration). The cell suspension was again centrifuged at 100 g for 1 minute, and the supernatant was removed. Subsequently, the pellets were resuspended in a Leibovitz's L15 medium supplemented with N-2 (manufactured by Invitrogen Corp.), 750 μg/ml of BSA (manufactured by GIBCO), and 25 ng/ml of NGF or 50 ng/ml of NT-3 (manufactured by Sigma-Aldrich Corporation). The cells were seeded on glass dishes precoated with mouse-derived laminin (manufactured by Invitrogen Corp.) at […] such that the cell count would be 10,000 per dish. The dishes were placed in a culturing environment of 5% CO2 at 37° C. for approximately 2 hours before used in a growth cone turning assay.
The in vitro growth cone turning assay was conducted according to the methods described in M. Lohof, M. Quillan, Y. Dan, M. M. Poo, J Neurosci 12, 1253-61 (April, 1992), J. Q. Zheng, M. M. Poo, J. A. Connor, Perspect Dev Neurobiol 4, 205-13 (1996), and Y. Xiang et al., Nat Neurosci 5, 843-8 (September, 2002), which were somewhat modified. Specifically, lysophosphatidylcholine (manufactured by Sigma-Aldrich Corporation) or Lyso-PtdGlc prepared by a method described later was diluted with a vehicle (1% (v/v) methanol/PBS) such that the concentration would be 10 μM. […]

[2] = tested on: growth cone of an NT-3-dependent neuron (TrkC neuron); assay: In vitro growth cone turning assay, NT-3-supplemented medium; assay type: cell-based, chicken; conditions: lysophospholipid 10 μM in pipette, 45 minutes
Source text: as §1, with “The dishes were placed in a culturing environment of 5% CO2 at 37° C. for approximately 2 hours before used in a growth cone turning assay.” left out

Row | Molecule | change in axon extension direction in response to concentration gradient [1] | change in axon extension direction in response to concentration gradient [2] | chemorepellent effect on growth cone turning ([1]; in the presence of 50 μg/ml anti-Lyso-PtdGlc antibody)
1 | Lysophosphatidylcholine [LPC] | no significant influence | no significant influence | 
2 | CCCCCCCCCCCCCCCCCC(=O)OCC(O)COP(=O)(O)O[C@@H]1OC(CO)[C@@H](O)C(O)C1O (some centres unmarked) [Lyso-PtdGlc, lysophosphatidylglucoside] | changed its extension direction | no significant change | 
3 | Lysophosphatidic acid [LPA] |  |  | strong chemorepellent effect
